Tests used:
IDH1/R132H = biological target: T1, IDH1/R132H (Homo sapiens, UniProt O75874, R132H); assay: Biochemical assay for IDH1 R132H mutant enzyme (2HG by RapidFire MS); settings: mean ± standard deviation of the mean; 90 minutes reaction
T1 construct: His-tag (N); made in house; host or cells: E. coli
Procedure: (§1) IDH1-R132H, IDH1-R132C, IDH2-R172K and IDH2-R140Q mutant enzymes catalyze the conversion of αKG to 2HG. 2HG is analyzed using in-line solid phase extraction and mass spectrometry. This analysis is carried out in a RapidFire® instrument coupled to a 6460 triple quadrupole mass spectrometer (G6460A Agilent).
(§2) IDH1 mutant (R132H and R132C) and IDH2 mutant (R140Q and R172K) proteins containing N-terminal His-tag are expressed in E. coli and purified using nickel affinity chromatography. The enzyme assays are carried out in V-bottom 96 well polypropylene plates containing 100 mM Tris-HCl buffer, 1 mM DTT, 0.005% TRITON™ X-100, 120 mM NaCl. For IDH1 R132H, α-ketoglutarate, NADPH and MnCl2 are included at final concentrations of 300 μM, 2.5 μM and 300 μM respectively. For IDH1 R132C, α-ketoglutarate, NADPH and MnCl2 are included at final concentrations of 100 μM, 10 μM and 100 μM respectively. For IDH2 R172K, α-ketoglutarate, NADPH and MnCl2 are included at final concentrations of 150 μM, 10 μM and 150 μM respectively. For IDH2 R140Q, α-ketoglutarate, NADPH and MnCl2 are included at final concentrations of 3000 μM, 10 μM and 100 μM respectively. Final pH=7.0. Test compound dissolved in DMSO stock is diluted in the reaction mix at a final DMSO concentration of 4%. Compounds are tested in dose-response format. The assay is started by addition of enzyme. Enzymes are used at the following final concentrations: IDH1 R132H, 2 nM; IDH1 R132C, 0.5 nM; IDH2 R172K, 1.2 nM; IDH2 R140Q, 1.2 nM. After 90 minutes the reaction is quenched by adding ACN (50:50) containing 3-hydroxy-1,5-pentanedioic-2,2,3,4,4-d5 acid (5d5-3HG) as an internal standard for mass spectrometry analysis and quantitation of reaction product. 2-Hydroxyglutarate (2HG) in quenched samples is separated using strong anionic exchange column chromatography (Phenomenex Strata-X-A SecurityGuard) and analyzed by mass spectrometry in a 6460 triple quadrupole mass spectrometer (G6460A Agilent). The 2HG signal detected is transformed into an analyte concentration using a calibration curve generated using known 2HG concentrations. […] IC50 values are obtained from the individual % inhibition values at different compound concentrations using a 4-parameter equation. These calculations are carried out using Activity Base (IDBS) or Screener (Genedata) data analysis programs.

IDH2/R140Q = biological target: T2, IDH2/R140Q (Homo sapiens, UniProt P48735, R140Q); assay: Biochemical assay for IDH2 R140Q mutant enzyme (2HG by RapidFire MS); settings: mean ± standard deviation of the mean; 90 minutes reaction
T2 construct: His-tag (N); made in house; host or cells: E. coli
T2 sequence (P48735 40-452 R140Q): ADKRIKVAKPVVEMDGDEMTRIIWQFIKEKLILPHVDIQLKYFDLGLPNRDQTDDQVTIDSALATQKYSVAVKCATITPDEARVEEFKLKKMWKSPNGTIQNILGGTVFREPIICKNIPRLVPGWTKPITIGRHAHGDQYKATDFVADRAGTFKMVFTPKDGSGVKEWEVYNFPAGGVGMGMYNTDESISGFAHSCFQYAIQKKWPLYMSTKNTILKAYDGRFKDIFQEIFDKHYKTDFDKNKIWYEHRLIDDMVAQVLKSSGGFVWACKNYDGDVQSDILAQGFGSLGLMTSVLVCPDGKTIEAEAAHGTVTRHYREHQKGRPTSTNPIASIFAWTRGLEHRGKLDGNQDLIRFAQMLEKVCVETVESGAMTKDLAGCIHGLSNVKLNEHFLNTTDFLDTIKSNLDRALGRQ
Procedure: as §1, §2

[1] = test system: IDH1/R132H in U87MG glioma cells; assay: U87MG/IDH1R132H cell assay (intracellular 2HG); type: cell-based; settings: Homo sapiens, U-87 MG, 19 h, 1 hour + 18 hours incubation, read-out: U87MG (IDH1/R132H 2-hydroxyglutarate IC50)
Procedure: To test the cellular inhibition of IDH1 mutant R132C, the fibrosarcoma cell line HT1080 (purchased from ATCC) is used. For testing cell-based inhibition of the R132H mutation, the U87MG glioma cell line (ATCC) was stably transfected with a DNA construct expressing the R132H mutant enzyme.
Cells are plated in poly-D-lys coated 96 well plates (12,000 cells/well) 18-24 hours previous to treatment with compounds. Four hours prior to compound treatment, cells are glutamine-starved by removing normal media and replacing with glutamine-free media. Following starvation, cells are then treated with different concentrations of test compounds (20 μM to 1 nM) dissolved in glutamine free media containing DMSO at a final concentration of 0.2%. The initial compound incubation is for 1 hour at 37° C./5% CO2. After 1 hour, glutamine is added to a final 2 mM concentration and the treated cells are then incubated for a further 18 hours at 37° C./5% CO2. Intracellular 2HG is analyzed in cell lysates obtained after media removal and treatment with lysis buffer (25 mM Tris-HCl pH 7.5, 150 mM NaCl, 1 mM EDTA, 1 mM EGTA/1% Triton-X 100). Cell lysates are conserved at −80° C. until processing. For analyte extraction, an aliquot of thawed lysate is transferred to a deep 96-well plate and treated with cold MeOH containing d5-3HG as an internal standard followed by chloroform and H2O (1:4:3:2). The upper phase is collected after separation and injected in HPLC to separate 2HG (and internal standard) using hydrophilic interaction (HILIC) chromatography coupled to MS/MS detection in a 6460 triple quadrupole mass spectrometer. Percent inhibition for each individual sample is obtained after normalizing calculated 2HG concentration to maximum and minimum references obtained in the presence and in the absence of glutamine during cell treatment with compounds. IC50 values are obtained from individual % inhibition using a sigmoidal dose-response 4-parameter equation. These calculations are carried out automatically using Activity Base (IDBS) or Screener (Genedata) data analysis programs.

T1 sequence (O75874 whole entry R132H): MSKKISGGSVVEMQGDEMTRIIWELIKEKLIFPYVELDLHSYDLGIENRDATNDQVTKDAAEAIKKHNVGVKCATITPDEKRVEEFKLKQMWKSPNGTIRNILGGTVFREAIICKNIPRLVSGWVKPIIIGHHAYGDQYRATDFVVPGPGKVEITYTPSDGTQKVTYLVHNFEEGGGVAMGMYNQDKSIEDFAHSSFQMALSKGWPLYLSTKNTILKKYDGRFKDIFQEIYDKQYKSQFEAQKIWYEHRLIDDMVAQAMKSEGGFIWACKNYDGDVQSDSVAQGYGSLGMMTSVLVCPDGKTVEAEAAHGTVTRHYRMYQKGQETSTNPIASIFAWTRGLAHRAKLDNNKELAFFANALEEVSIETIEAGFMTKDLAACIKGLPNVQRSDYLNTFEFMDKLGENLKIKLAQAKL

SMILES | IC50 (IDH1/R132H) [nM] | IC50 (IDH2/R140Q) [nM] | IC50 [1] [nM]
C=CC(=O)N1CC(OCc2ccc([C@H](C)Nc3ncc4c(n3)N(CC(C)C)C(=O)OC4)cc2)C1 [Example 13, 1-Isobutyl-7-[[(1S)-1-[4-[(1-prop-2-enoylazetidin-3-yl)oxymethyl]phenyl]ethyl]amino]-4H-pyrimido[4,5-d][1,3]oxazin-2-one] | 77.7 ± 19.6 | 93600 | 7.5 ± 0.283
C=CC(=O)N1CC(OCc2ccc([C@H](C)Nc3ncc4c(n3)N(CC)C(=O)OC4)cc2)C1 [Example 4, 1-Ethyl-7-[[(1S)-1-[4-[(1-prop-2-enoylazetidin-3-yl)oxymethyl]phenyl]ethyl]amino]-4H-pyrimido[4,5-d][1,3]oxazin-2-one] | 78.6 ± 18.9 | 37700 | 2.98 ± 2.58
C=CC(=O)N1CCN(Cc2ccc([C@H](C)Nc3ncc4c(n3)N(C(C)C)C(=O)OC4)cc2)CC1 [Example 1, 1-Isopropyl-7-[[(1S)-1-[4-[(4-prop-2-enoylpiperazin-1-yl)methyl]phenyl]ethyl]amino]-4H-pyrimido[4,5-d][1,3]oxazin-2-one] | 29.1 ± 10.7 | 41800 | 2.65 ± 0.07

Results, then the compound that gave them:

IC50 (IDH1/R132H) [nM] | IC50 (IDH2/R140Q) [nM] | IC50 [1] [nM] | SMILES
50.9 ± 13.1 | 59500 | 5.9 | C=CC(=O)N1CCN(Cc2ccc([C@H](C)Nc3ncc4c(n3)N(CC(C)C)C(=O)OC4)cc2)CC1 [Example 3, 1-Isobutyl-7-[[(1S)-1-[4-[(4-prop-2-enoylpiperazin-1-yl)methyl]phenyl]ethyl]amino]-4H-pyrimido[4,5-d][1,3]oxazin-2-one]
180 ± 33 | 83500 ± 17400 | 31.9 ± 11.7 | C=CC(=O)N1CCN(Cc2ccc([C@H](C)Nc3ncc4c(n3)N(CC(F)F)C(=O)OC4)cc2)CC1 [Example 20, 1-(2,2-difluoroethyl)-7-[[(1S)-1-[4-[(4-prop-2-enoylpiperazin-1-yl)methyl]phenyl]ethyl]amino]-4H-pyrimido[4,5-d][1,3]oxazin-2-one]

— patent US10253041B2, “7-phenylethylamino-4H-pyrimido[4,5-d][1,3]oxazin-2-one compounds and their use as mutant IDH1 inhibitors” (Eli Lilly and Company, priority 2015, dated 2019)
